Results: paper PMC8097444 (Antimicrobial Agents and Chemotherapy, 2021)
Like-named read-outs stand apart in the source and are kept apart here.

Columns and labels:
SARS-CoV-2 3CL^pro = SARS-CoV-2 3CL^pro (Severe acute respiratory syndrome coronavirus 2, UniProt P0DTD1); assay: SARS-CoV-2 3CLpro fluorogenic; assay type: biochemical; conditions: for inhibition of 3CL^pro in screen: 10 μM drug, hit of 1,068 or 2,701 FDA-approved drug collection
SARS-CoV-2 = conditions: cited from earlier work
COVID-19 patients = conditions: cited from earlier work
[1] = system: SARS-CoV-2 in human lung cells; conditions: in vitro assay; cited from earlier work
SARS-CoV-2 PL^pro = SARS-CoV-2 PL^pro (Severe acute respiratory syndrome coronavirus 2, UniProt P0DTD1); assay: SARS-CoV-2 PLpro fluorogenic inhibition assay: screening at 10 μM and IC50; assay type: biochemical
SARS-CoV-2 virus = assay type: cell-based; conditions: for selectivity index (SI): derived from CC50 and EC50
SARS-CoV = conditions: read-out: EC50 against SARS-CoV; cited from earlier work
[2] = read-out: EC50 against SARS-CoV-2 in vitro

## CC(C)(C)NC(=O)N[C@H](C(=O)N1C[C@H]2[C@@H]([C@H]1C(=O)NC(CC1CCC1)C(=O)C(N)=O)C2(C)C)C(C)(C)C (stereo partly drawn) [Boceprevir]
SARS-CoV-2 3CL^pro
  inhibition of 3CL^pro in screen: active at 10 μM

## O=c1c2ccccc2[se]n1-c1ccccc1 [Ebselen]
SARS-CoV-2 3CL^pro
  inhibition of 3CL^pro in screen: active at 10 μM

## CCC(CC)COC(=O)[C@H](C)N[P@](=O)(OC[C@H]1O[C@@](C#N)(c2ccc3c(N)ncnn23)[C@H](O)[C@@H]1O)Oc1ccccc1 [Remdesivir]
SARS-CoV-2; read-out: EC50, SARS-CoV-2 viral replication
  EC50: 0.7 µM
COVID-19 patients
  benefit in clinical trials on COVID-19 patients: 68%

## CCN(CC)CCCC(C)Nc1ccnc2cc(Cl)ccc12 (stereo not drawn) [chloroquine]
SARS-CoV-2; [2]
  EC50: 1.13 µM
[1]
  inhibitory effects on SARS-CoV-2 in human lung cells: no inhibitory effects

## NC(=O)c1nc(F)c[nH]c1=O [favipiravir]
SARS-CoV-2
  inhibition of SARS-CoV-2 replication: weak inhibition

## CCN(CCO)CCCC(C)Nc1ccnc2cc(Cl)ccc12 (stereo not drawn) [hydroxychloroquine]
SARS-CoV-2
  inhibition of SARS-CoV-2 in vitro: shown to inhibit SARS-CoV-2 in vitro
COVID-19 patients
  clinical benefit against COVID-19: no clinical benefit

## N[C@@H](Cc1cc(I)c(Oc2cc(I)c(O)c(I)c2)c(I)c1)C(=O)O [levothyroxine]
SARS-CoV-2 3CL^pro
  IC50: 19.2 ± 1.2 µM
SARS-CoV-2 PL^pro
  IC50: 15.3 ± 4.2 µM
SARS-CoV-2 virus
  inhibition of virus, postentry treatment: postentry treatment could not inhibit the virus
  reduction of viral plaques, full-time treatment: effective in reducing viral plaques
  selectivity index (SI): > 14.3

## CN(C)C(=O)C(CCN1CCC(O)(c2ccc(Cl)cc2)CC1)(c1ccccc1)c1ccccc1 [loperamide]
SARS-CoV-2 virus
  inhibition of virus, postentry treatment: postentry treatment could still inhibit the virus
  reduction of viral plaques, full-time treatment: effective in reducing viral plaques
SARS-CoV-2 virus; entry treatment
  antiviral activity, entry step: not the entry step

## COC(=O)C1=C(C)NC(C)=C(C(=O)OCCN2CCN(C(c3ccccc3)c3ccccc3)CC2)C1c1cccc([N+](=O)[O-])c1 (stereo not drawn) [manidipine-2HCl]
SARS-CoV-2 3CL^pro
  IC50: 10.4 ± 1.6 µM
SARS-CoV-2 PL^pro
  IC50: 14.2 ± 1.7 µM
SARS-CoV-2 virus
  inhibition of virus, postentry treatment: postentry treatment could still inhibit the virus
  reduction of viral plaques, full-time treatment: effective in reducing viral plaques
  selectivity index (SI): > 6.9

## CNCCCC12CCC(c3ccccc31)c1ccccc12 [maprotiline]
SARS-CoV-2 virus
  antiviral activity, entry step: not the entry step
  inhibition of virus, postentry treatment: postentry treatment could still inhibit the virus
  reduction of viral plaques, full-time treatment: effective in reducing viral plaques

## Nc1nc2c(ncn2CCC(CO)CO)c(=O)[nH]1 [penciclovir]
SARS-CoV-2
  inhibition of SARS-CoV-2 replication: weak inhibition

## COC(=O)[C@H]1[C@H]2C[C@@H]3c4[nH]c5cc(OC)ccc5c4CCN3C[C@H]2C[C@@H](OC(=O)c2cc(OC)c(OC)c(OC)c2)[C@@H]1OC [reserpine]
SARS-CoV-2 PL^pro
  IC50: 5.7 ± 0.7 µM
SARS-CoV-2 virus
  reduction of viral plaques, full-time treatment: effective in reducing viral plaques
  selectivity index (SI): > 15.2
SARS-CoV
  EC50: 3.4 µM

## NC(=O)c1ncn([C@@H]2O[C@H](CO)[C@@H](O)[C@H]2O)n1 [ribavirin]
SARS-CoV-2
  inhibition of SARS-CoV-2 replication: weak inhibition

## Cc1ccc(C(=O)c2cc(O)c(O)c([N+](=O)[O-])c2)cc1 [tolcapone]
SARS-CoV-2 3CL^pro
  IC50: 7.9 µM
  inhibition of 3CL^pro in screen: active at 10 μM
SARS-CoV-2 virus; tolcapone
  antiviral activity (figure not shown): weak antiviral activity only at 50 μM

## ivermectin
SARS-CoV-2; [2]
  EC50: 2.5 µM

## lopinavir/ritonavir
SARS-CoV-2
  inhibition of SARS-CoV-2 replication: weak inhibition
